Laboratory results taken from ChEMBL document CHEMBL5579815, “Novel angiogenesis inhibitors with superoxide anion radical amplification effect: Surmounting the Achilles' heels of angiogenesis inhibitors and photosensitizers” (Eur J Med Chem, 2024).
Active and inactive are the calls of the source. No cut-off for these calls is given here.

Columns and labels:
[1] = Drug uptake in human EA.hy 926 cells at 1 uM measured after 24 hrs by flow cytometry; assay type: ADME, cell-based; conditions: ea.hy 926, 24 h
[2] = Drug uptake in HEK293 cells at 1 uM measured after 24 hrs by flow cytometry; assay type: ADME, cell-based; conditions: human, hek293, 24 h
SK-MEL-28 [3] = assay: (§1) Induction of apoptosis in human SK-MEL-28 cells assessed as late apoptotic cells at 2 uM preincubated for 24 hrs under normoxic condition followed by media removal and irradiated with 650 nm 10 mW/cm2 light for 15 mins under normoxic condition by Annexin V-FITC/propidium iodide staining based flow cytometry (reference value: 1.95%); assay type: functional
SK-MEL-28 [4] = assay: as §1, with “as early” for “as late”, “at 0.5” for “at 2”, “value: 1.8%)” for “value: 1.95%)”; assay type: functional
A549 [5] = assay: (§2) Cytotoxicity against human A549 cells assessed as reduction in cell viability at 0.008 to 1 uM preincubated for 24 hrs under normoxic condition followed by media removal and irradiated with 650 nm 10 mW/cm2 light for 15 mins under normoxic condition prior to media replacement and measured after 24 hrs by MTT assay; assay type: functional, cell-based; conditions: dose 0.008-1 µM
SK-MEL-28 [6] = assay: as §1, with “viable” for “late apoptotic”, “93.62%)” for “1.95%)”; assay type: functional; conditions: SK-MEL-28, light or radiation study, read-out: Activity
SK-MEL-28 [7] = assay: as §1, with “hypoxic” for “normoxic”; assay type: functional
SK-MEL-28 [8] = assay: as §2, with “SK-MEL-28” for “A549”, “viability” for “viability at 0.008 to 1 uM”, “hypoxic” for “normoxic”; assay type: functional, cell-based; conditions: SK-MEL-28, light or radiation study
EA.hy 926 [9] = assay: as §2, with “Antiangiogenic activity in” for “Cytotoxicity against”, “EA.hy 926” for “A549”; assay type: functional, cell-based; conditions: dose 0.008-1 µM
SK-MEL-28 [10] = assay: as §1, with “as viable” for “as late apoptotic”, “at 1” for “at 2”, “under hypoxic” for “under normoxic”, “value: 93.62%)” for “value: 1.95%)”; assay type: functional; conditions: SK-MEL-28, light or radiation study, read-out: Activity
SK-MEL-28 [11] = assay: Induction of apoptosis in human SK-MEL-28 cells preincubated for 24 hrs under hypoxic condition followed by media removal and irradiated with 650 nm 10 mW/cm2 light for 15 mins under hypoxic condition by Annexin V-FITC/propidium iodide staining based flow cytometry; assay type: functional, cell-based; conditions: dose 0.5-2 µM
SK-MEL-28 [12] = assay: as §1, with “as early” for “as late”, “at 1” for “at 2”, “value: 1.8%)” for “value: 1.95%)”; assay type: functional
SK-MEL-28 [13] = assay: as §1, with “as viable” for “as late apoptotic”, “at 0.5” for “at 2”, “under hypoxic” for “under normoxic”, “value: 93.62%)” for “value: 1.95%)”; assay type: functional; conditions: SK-MEL-28, light or radiation study, read-out: Activity
SK-MEL-28 [14] = assay: as §1, with “as early” for “as late”, “at 0.5” for “at 2”, “under hypoxic” for “under normoxic”, “value: 1.8%)” for “value: 1.95%)”; assay type: functional
[15] = Dark toxicity in human SK-MEL-28 cells assessed as reduction in cell viability by MTT assay; assay type: cell-based
[16] = Induction of ROS generation in methanol solution assessed as reduction in DPBF absorption peak at 10 uM irradiated with 650 nm 10 mW/cm2 light for upto 9 mins by DPBF probe based UV-vis absorption spectra analysis; assay type: functional
SK-MEL-28 [17] = assay: as §1, with “as viable” for “as late apoptotic”, “at 0.5” for “at 2”, “value: 93.62%)” for “value: 1.95%)”; assay type: functional; conditions: SK-MEL-28, light or radiation study, read-out: Activity
SK-MEL-28 [18] = assay: as §1, with “as necrotic” for “as late apoptotic”, “at 0.5” for “at 2”, “under hypoxic” for “under normoxic”, “value: 2.63%)” for “value: 1.95%)”; assay type: functional
SK-MEL-28 [19] = assay: as §1, with “early” for “late”, “hypoxic” for “normoxic”, “1.8%)” for “1.95%)”; assay type: functional
SK-MEL-28 [20] = assay: Induction of ROS generation in human SK-MEL-28 cells at 1 uM incubated for 24 hrs under normoxic condition prior to DHE addition for 30 mins followed by media removal and irradiated with 650 nm 10 mW/cm2 light for 15 mins under normoxic condition by DAPI staining based fluorescence microscopy; assay type: functional, cell-based
SK-MEL-28 [21] = assay: as §1, with “necrotic” for “late apoptotic”, “hypoxic” for “normoxic”, “2.63%)” for “1.95%)”; assay type: functional
SK-MEL-28 [22] = assay: as §1, with “as necrotic” for “as late apoptotic”, “at 1” for “at 2”, “value: 2.63%)” for “value: 1.95%)”; assay type: functional
HEK293 = assay: Dark toxicity in HEK293 cells assessed as reduction in cell viability at 0.078 to 10 uM by MTT assay; assay type: cell-based; conditions: human, hek293, 10 µM; dose 0.078-10 µM
SK-MEL-28 [23] = assay: as §1, with “as viable” for “as late apoptotic”, “at 1” for “at 2”, “value: 93.62%)” for “value: 1.95%)”; assay type: functional; conditions: SK-MEL-28, light or radiation study, read-out: Activity
SK-MEL-28 [24] = assay: as §1, with “at 0.5” for “at 2”; assay type: functional
A549 [25] = assay: as §2, with “hypoxic” for “normoxic”; assay type: functional, cell-based; conditions: dose 0.008-1 µM
EA.hy 926 [26] = assay: as §2, with “Antiangiogenic activity in” for “Cytotoxicity against”, “EA.hy 926” for “A549”, “hypoxic” for “normoxic”; assay type: functional, cell-based; conditions: dose 0.008-1 µM
[27] = Induction of ROS generation in methanol solution assessed as increase in singlet oxygen level by measuring reduction in ABDA absorption peak at 10 uM irradiated with 650 nm 10 mW/cm2 light for upto 9 mins by ABDA probe based UV-vis absorption spectra analysis; assay type: functional
SK-MEL-28 [28] = assay: as §1, with “as necrotic” for “as late apoptotic”, “at 0.5” for “at 2”, “value: 2.63%)” for “value: 1.95%)”; assay type: functional
SK-MEL-28 [29] = assay: as §1, with “at 1” for “at 2”, “under hypoxic” for “under normoxic”; assay type: functional
SK-MEL-28 [30] = assay: as §1, with “at 0.5” for “at 2”, “under hypoxic” for “under normoxic”; assay type: functional
SK-MEL-28 [31] = assay: as §1, with “viable” for “late apoptotic”, “hypoxic” for “normoxic”, “93.62%)” for “1.95%)”; assay type: functional; conditions: SK-MEL-28, light or radiation study, read-out: Activity
SK-MEL-28 [32] = assay: as §2, with “SK-MEL-28” for “A549”, “viability” for “viability at 0.008 to 1 uM”; assay type: functional, cell-based; conditions: SK-MEL-28, light or radiation study

## CCN(CC)c1ccc2nc3c4ccccc4/c(=N\CCCCCCNC(=O)c4cc(Oc5ccc(NC(=O)Nc6ccc(Cl)c(C(F)(F)F)c6)cc5)ccn4)cc-3sc2c1
[1]
  Drug uptake: Active
[2]
  Drug uptake: Active
SK-MEL-28 [3]
  Activity: 26.72%
SK-MEL-28 [4]
  Activity: 12.86%
A549 [5]
  Activity: Active
SK-MEL-28 [6]
  viability at 2 µM: 27.2%
SK-MEL-28 [7]
  Activity: 17.67%
SK-MEL-28 [8]
  IC50: 158 nM
EA.hy 926 [9]
  Activity: Active
SK-MEL-28 [10]
  viability at 1 µM: 69%
SK-MEL-28 [11]
  Activity: Dose-Dependent Effect
SK-MEL-28 [12]
  Activity: 3.59%
SK-MEL-28 [13]
  viability at 0.5 µM: 78.3%
SK-MEL-28 [14]
  Activity: 3.13%
[15]
  IC50: > 10000 nM
[16]
  Activity: Active
SK-MEL-28 [17]
  viability at 0.5 µM: 73.2%
SK-MEL-28 [18]
  Activity: 11.5%
SK-MEL-28 [19]
  Activity: 10.55%
SK-MEL-28 [20]
  Activity: Active
SK-MEL-28 [21]
  Activity: 18.77%
SK-MEL-28 [22]
  Activity: 23.01%
HEK293
  Activity: Non-Toxic
SK-MEL-28 [23]
  viability at 1 µM: 64.6%
SK-MEL-28 [24]
  Activity: 2.86%
A549 [25]
  Activity: Active
EA.hy 926 [26]
  Activity: Active
[27]
  Activity: inactive
SK-MEL-28 [28]
  Activity: 11.1%
SK-MEL-28 [29]
  Activity: 7.57%
SK-MEL-28 [30]
  Activity: 7.05%
SK-MEL-28 [31]
  viability at 2 µM: 53%
SK-MEL-28 [32]
  IC50: 100 nM
